ChEMBL document CHEMBL3885881, “DrugMatrix”

Species on record: Rattus norvegicus
Assay: DrugMatrix - Regimen: Daily Repeat
Format: toxicity, organism-based, Sprague-Dawley
Parameters: regimen Daily Repeat, gender Male, age 6-8 weeks
Settings: in vivo, po, route oral GAVAGE, vehicle 100 % WATER; for ABSOLUTE BASOPHIL / ABSOLUTE EOSINOPHIL / ABSOLUTE LYMPHOCYTE / ABSOLUTE MONOCYTE / ABSOLUTE SEGMENTED NEUTROPHIL / BASOPHIL / EOSINOPHIL / ERYTHROCYTE COUNT / HEMATOCRIT / HEMOGLOBIN / LEUKOCYTE COUNT / LYMPHOCYTE / MEAN CORPUSCULAR HEMOGLOBIN / MEAN CORPUSCULAR HEMOGLOBIN CONCENTRATION / MEAN CORPUSCULAR VOLUME / MONOCYTE / NEUTROPHIL / NUCLEATED RED BLOOD CELLS / PLATELET COUNT: tissue Blood; for ALANINE AMINOTRANSFERASE / ALBUMIN / ALKALINE PHOSPHATASE / ASPARTATE AMINOTRANSFERASE / BLOOD UREA NITROGEN / CARBON DIOXIDE / CHLORIDE / CHOLESTEROL / CREATINE PHOSPHOKINASE / CREATININE / GLUCOSE / LACTATE DEHYDROGENASE / LIPASE / PHOSPHORUS / POTASSIUM / SODIUM / TOTAL BILIRUBIN / TOTAL PROTEIN / URIC ACID: tissue Plasma
[1] = 0 mg/kg, 72 h, dose level Control, time 3 day
[2] = 0 mg/kg, 120 h, dose level Control, time 5 day
[3] = 31 mg/kg, 72 h, dose level Low, time 3 day

## Nc1ccc(S(=O)(=O)Nc2nccs2)cc1 [SULFATHIAZOLE]
[1]
  ABSOLUTE BASOPHIL: 0 CELLS/uL
  ABSOLUTE EOSINOPHIL: 0 CELLS/uL
  ABSOLUTE LYMPHOCYTE: 8482.5 CELLS/uL
  ABSOLUTE MONOCYTE: 63.83 CELLS/uL
  ABSOLUTE SEGMENTED NEUTROPHIL: 887 CELLS/uL
  BASOPHIL: 0%
  EOSINOPHIL: 0%
  ERYTHROCYTE COUNT: 5.49 x10E6/uL
  HEMATOCRIT: 34.5%
  HEMOGLOBIN: 13.33 G/DL
  LEUKOCYTE COUNT: 9.43 x10E3/uL
  LYMPHOCYTE: 90.17%
  MEAN CORPUSCULAR HEMOGLOBIN: 24.3 pg
  MEAN CORPUSCULAR HEMOGLOBIN CONCENTRATION: 38.63 G/DL
  MEAN CORPUSCULAR VOLUME: 62.88 fL
  MONOCYTE: 0.67%
  NEUTROPHIL: 9.17%
  NUCLEATED RED BLOOD CELLS: 0.67 /100WBC
  PLATELET COUNT: 1022.83 x10E3/uL
  ALANINE AMINOTRANSFERASE: 50.5 u/L
  ALBUMIN: 4.08 G/DL
  ALKALINE PHOSPHATASE: 368.33 u/L
  ASPARTATE AMINOTRANSFERASE: 87.5 u/L
  BLOOD UREA NITROGEN: 12.83 mg/dL
  CARBON DIOXIDE: 32.83 mmol/L
  CHLORIDE: 99.67 MEQ/L
  CHOLESTEROL: 79.67 mg/dL
  CREATINE PHOSPHOKINASE: 585 u/L
  CREATININE: 0.22 mg/dL
  GLUCOSE: 135.67 mg/dL
  LACTATE DEHYDROGENASE: 171 u/L
  LIPASE: 9.5 u/L
  PHOSPHORUS: 11.18 mg/dL
  POTASSIUM: 6.25 MEQ/L
  SODIUM: 144.87 MEQ/L
  TOTAL BILIRUBIN: 0.2 mg/dL
  TOTAL PROTEIN: 6.08 G/DL
  URIC ACID: 0.65 mg/dL
[2]
  ABSOLUTE BASOPHIL: 0 CELLS/uL
  ABSOLUTE EOSINOPHIL: 14.5 CELLS/uL
  ABSOLUTE LYMPHOCYTE: 7596.17 CELLS/uL
  ABSOLUTE MONOCYTE: 69.67 CELLS/uL
  ABSOLUTE SEGMENTED NEUTROPHIL: 503 CELLS/uL
  BASOPHIL: 0%
  EOSINOPHIL: 0.17%
  ERYTHROCYTE COUNT: 5.49 x10E6/uL
  HEMATOCRIT: 34.72%
  HEMOGLOBIN: 13.47 G/DL
  LEUKOCYTE COUNT: 8.18 x10E3/uL
  LYMPHOCYTE: 92.17%
  MEAN CORPUSCULAR HEMOGLOBIN: 24.57 pg
  MEAN CORPUSCULAR HEMOGLOBIN CONCENTRATION: 38.82 G/DL
  MEAN CORPUSCULAR VOLUME: 63.3 fL
  MONOCYTE: 1%
  NEUTROPHIL: 6.67%
  NUCLEATED RED BLOOD CELLS: 0 /100WBC
  PLATELET COUNT: 1141 x10E3/uL
  ALANINE AMINOTRANSFERASE: 48.33 u/L
  ALBUMIN: 4.07 G/DL
  ALKALINE PHOSPHATASE: 395.67 u/L
  ASPARTATE AMINOTRANSFERASE: 85.67 u/L
  BLOOD UREA NITROGEN: 15.83 mg/dL
  CARBON DIOXIDE: 31.33 mmol/L
  CHLORIDE: 100.83 MEQ/L
  CHOLESTEROL: 62.33 mg/dL
  CREATINE PHOSPHOKINASE: 248.33 u/L
  CREATININE: 0.2 mg/dL
  GLUCOSE: 135.67 mg/dL
  LACTATE DEHYDROGENASE: 141.33 u/L
  LIPASE: 9.5 u/L
  PHOSPHORUS: 10.73 mg/dL
  POTASSIUM: 6.07 MEQ/L
  SODIUM: 145.35 MEQ/L
  TOTAL BILIRUBIN: 0.22 mg/dL
  TOTAL PROTEIN: 6.12 G/DL
  URIC ACID: 0.63 mg/dL
[3]
  ABSOLUTE BASOPHIL: 0 CELLS/uL
  ABSOLUTE EOSINOPHIL: 0 CELLS/uL
  ABSOLUTE LYMPHOCYTE: 8271.67 CELLS/uL
  ABSOLUTE MONOCYTE: 54.33 CELLS/uL
  ABSOLUTE SEGMENTED NEUTROPHIL: 707.33 CELLS/uL
  BASOPHIL: 0%
  EOSINOPHIL: 0%
  ERYTHROCYTE COUNT: 5.15 x10E6/uL
  HEMATOCRIT: 32.73%
  HEMOGLOBIN: 12.87 G/DL
  LEUKOCYTE COUNT: 9.03 x10E3/uL
  LYMPHOCYTE: 91.33%
  MEAN CORPUSCULAR HEMOGLOBIN: 25.13 pg
  MEAN CORPUSCULAR HEMOGLOBIN CONCENTRATION: 39.33 G/DL
  MEAN CORPUSCULAR VOLUME: 63.97 fL
  MONOCYTE: 0.67%
  NEUTROPHIL: 8%
  NUCLEATED RED BLOOD CELLS: 0 /100WBC
  PLATELET COUNT: 928 x10E3/uL
  ALANINE AMINOTRANSFERASE: 54.67 u/L
  ALBUMIN: 4.13 G/DL
  ALKALINE PHOSPHATASE: 375.67 u/L
  ASPARTATE AMINOTRANSFERASE: 86.67 u/L
  BLOOD UREA NITROGEN: 13.67 mg/dL
  CARBON DIOXIDE: 32 mmol/L
  CHLORIDE: 100.33 MEQ/L
  CHOLESTEROL: 70.33 mg/dL
  CREATINE PHOSPHOKINASE: 289 u/L
  CREATININE: 0.36 mg/dL
  GLUCOSE: 128.67 mg/dL
  LACTATE DEHYDROGENASE: 147.33 u/L
  LIPASE: 11.67 u/L
  PHOSPHORUS: 11.83 mg/dL
  POTASSIUM: 6.53 MEQ/L
  SODIUM: 144.47 MEQ/L
  TOTAL BILIRUBIN: 0.2 mg/dL
  TOTAL PROTEIN: 6.07 G/DL
  URIC ACID: 0.8 mg/dL
